Converted amounts (≈) assume the structure as drawn.
Test system: not listed separately
Assay: Solubility test in distilled water
Format: physicochemical
Conditions: thermodynamic from solid, 25° C.
Description: Test method: the dry compound was slowly dissolved into about 0.5 ml distilled water in a 5 ml EP tube until saturation (turbid after ultra-sonic vibration at 25° C.). The solution was filtered and moved to another clean 5 ml EP tube (pre-weighed) and the tube was weighed again to calculate the solution weight. The solution was freeze dried. The remaining solute was weighed to calculate the solvent weight, and then the compound solubility in water was determined.

Row | SMILES | solubility [µg/mL]
1 | CC(=O)N[C@H]1C(Oc2cc(C)nn2-c2ccccc2)O[C@H](CO)[C@@H](O)[C@@H]1O (stereo partly drawn) [Compound 37] | 6500 (≈ 17.2 mM)
2 | Cc1cc(OC2OC[C@@H](O)[C@H](O)[C@H]2O)n(-c2ccccc2)n1 (stereo partly drawn) [Compound 38, 1-phenyl-3-methyl-5-O-D-xylopyranoside-pyrazole] | 3800 (≈ 12.4 mM)
3 | Cc1cc(OC2O[C@H](CO)[C@@H](O)[C@H]2O)n(-c2ccccc2)n1 (stereo partly drawn) [Compound 39, 1-phenyl-3-methyl-5-O-D-riboside-pyrazole] | 5100 (≈ 16.6 mM)
4 | Cc1cc(OC2C[C@H](O)[C@@H](CO)O2)n(-c2ccccc2)n1 (stereo partly drawn) [Compound 40, 1-phenyl-3-methyl-5-O-D-(2-deoxy)riboside-pyrazole] | 3000 (≈ 10.3 mM)

Test system: not listed separately
Assay: Cytotoxic test (MTT)
Format: cell-based
Conditions: rat, PC12 cells, 48 h incubation
Description: (§1) After resuscitating, the PC12 cells were cultured in RPMI-1640 containing 10% horse serum and 5% Fetus Bovine Serum (FBS) under 5% CO2 at 37° C. for two weeks. The medium was changed every other day. The compounds were diluted into solutions of 12.5, 25, 50, 100, 200, 300 μM with culture medium (except examples 33-45 with additional solutions of 400 μM and 500 μM). The PC12 cells were seeded into a 96-well plate at a density of 1.2×10^4 cells/well and cultured in a 37° C., 5% CO2 incubator for 24 hours. Remove the medium, the cells were added with the compound solutions of different concentrations as test solutions for another 48 h incubation in a 37° C., 5% CO2 incubator.
(§2) After the incubation, the wells were added with 20 μL 5 mg/mL MTT and incubated for 4 hours at 37° C. Carefully removed the medium and added 150 μL DMSO. The plates were placed on an enzyme-labeled instrument and vibrated for 5 min. The absorbance Atest solution were obtained at 490 nm with the Ablank of the well without cells and the Acontrol of the well with untreated cells. The survival rates of the cells in every well were calculated by the formula as Survival rate (%)=(Atest solution−Ablank)/(Acontrol−Ablank)*100%

Row | SMILES | IC50 at 48 h [µM]
5 | Cc1cc(OCOC(=O)c2cc(N(C)C)ccc2O)n(-c2ccccc2)n1 [Compound 24, (3-methyl-1-phenylpyrazole-5-)oxymethyl-(2-hydroxy-5-N,N-dimethyl)benzoate] | 272
6 | CC(=O)N[C@H]1C(Oc2cc(C)nn2-c2ccccc2)O[C@H](CO)[C@@H](O)[C@@H]1O (stereo partly drawn) [Compound 37] | > 500
7 | Cc1cc(OC2OC[C@@H](O)[C@H](O)[C@H]2O)n(-c2ccccc2)n1 (stereo partly drawn) [Compound 38, 1-phenyl-3-methyl-5-O-D-xylopyranoside-pyrazole] | > 500
8 | Cc1cc(OC2O[C@H](CO)[C@@H](O)[C@H]2O)n(-c2ccccc2)n1 (stereo partly drawn) [Compound 39, 1-phenyl-3-methyl-5-O-D-riboside-pyrazole] | > 500
9 | Cc1cc(OC2C[C@H](O)[C@@H](CO)O2)n(-c2ccccc2)n1 (stereo partly drawn) [Compound 40, 1-phenyl-3-methyl-5-O-D-(2-deoxy)riboside-pyrazole] | > 500

Test system: PC12 cells
Assay: In-vitro neuroprotection-I (H2O2 injury, MTT)
Format: cell-based
Conditions: Rattus norvegicus, PC-12, 48 h compound, then 200 μM H2O2 24 h, MTT survival rate
Description: All samples were made into 60 mM stock solution by DMSO, which were 200 times diluted to 300 μM by medium. And the final concentration was further diluted into different concentrations by media.
Control: Normal cell-plating and same cell medium as other group. 24 hours later, the medium was discarded. Incubate the cell in new media for 24 hours. No compound and hydrogen peroxide treatment. Other steps were the same as the sample test as mentioned below did.
Blank: no cell plating, cell medium, and other steps were the same as the sample test as mentioned below did.
as §1, with “(except that” for “(except”, “The PC 12” for “The PC12”, “of 8×10^3” for “of 1.2×10^4”, “hours. Removed” for “hours. Remove”, “incubator. After the incubation, apart from the blank and control groups, the wells (including 0 μM drug group) were added to the medium-prepared 200 μM H2O2, and continued for another 24 h incubation in a 37° C., 5% CO2 incubator.” for “incubator.”
as §2, with “rate” for “rates”, “well” for “well were calculated”, “survival” for “as Survival”, “solution−Ablank)/(Acontrol−Ablank)*100%.” for “solution−Ablank)/(Acontrol−Ablank)*100%”

Row | SMILES | EC50 [µM]
10 | Cc1cc(OCOC(=O)c2cc(N(C)C)ccc2O)n(-c2ccccc2)n1 [Compound 24, (3-methyl-1-phenylpyrazole-5-)oxymethyl-(2-hydroxy-5-N,N-dimethyl)benzoate] | 44.7
11 | CC(=O)N[C@H]1C(Oc2cc(C)nn2-c2ccccc2)O[C@H](CO)[C@@H](O)[C@@H]1O (stereo partly drawn) [Compound 37] | 90
12 | Cc1cc(OC2O[C@H](CO)[C@@H](O)[C@H]2O)n(-c2ccccc2)n1 (stereo partly drawn) [Compound 39, 1-phenyl-3-methyl-5-O-D-riboside-pyrazole] | 55
13 | Cc1cc(OC2C[C@H](O)[C@@H](CO)O2)n(-c2ccccc2)n1 (stereo partly drawn) [Compound 40, 1-phenyl-3-methyl-5-O-D-(2-deoxy)riboside-pyrazole] | 54.7

Test system: MCAO model (middle cerebral artery ischemia-reperfusion)
Assay: In vivo drug efficacy test of MCAO model
Conditions: SD rats, MCAO 2 h then reperfusion, tail vein infusion 30 min, TTC staining, infarct area to whole brain area

Row | SMILES | Cerebral infarction area (%)
14 | CC(=O)N[C@H]1C(Oc2cc(C)nn2-c2ccccc2)O[C@H](CO)[C@@H](O)[C@@H]1O (stereo partly drawn) [Compound 37] | 17.6
15 | Cc1cc(OC2OC[C@@H](O)[C@H](O)[C@H]2O)n(-c2ccccc2)n1 (stereo partly drawn) [Compound 38, 1-phenyl-3-methyl-5-O-D-xylopyranoside-pyrazole] | 17.8
16 | Cc1cc(OC2O[C@H](CO)[C@@H](O)[C@H]2O)n(-c2ccccc2)n1 (stereo partly drawn) [Compound 39, 1-phenyl-3-methyl-5-O-D-riboside-pyrazole] | 18.0
17 | Cc1cc(OC2C[C@H](O)[C@@H](CO)O2)n(-c2ccccc2)n1 (stereo partly drawn) [Compound 40, 1-phenyl-3-methyl-5-O-D-(2-deoxy)riboside-pyrazole] | 18.5

Same assay, conditions: SD rats, MCAO 2 h then reperfusion, tail vein infusion 30 min, score at 24 h versus model control

Row | SMILES | Improvements of nerve function (%)
18 | CC(=O)N[C@H]1C(Oc2cc(C)nn2-c2ccccc2)O[C@H](CO)[C@@H](O)[C@@H]1O (stereo partly drawn) [Compound 37] | 17.5
19 | Cc1cc(OC2OC[C@@H](O)[C@H](O)[C@H]2O)n(-c2ccccc2)n1 (stereo partly drawn) [Compound 38, 1-phenyl-3-methyl-5-O-D-xylopyranoside-pyrazole] | 17.0
20 | Cc1cc(OC2O[C@H](CO)[C@@H](O)[C@H]2O)n(-c2ccccc2)n1 (stereo partly drawn) [Compound 39, 1-phenyl-3-methyl-5-O-D-riboside-pyrazole] | 16.9
21 | Cc1cc(OC2C[C@H](O)[C@@H](CO)O2)n(-c2ccccc2)n1 (stereo partly drawn) [Compound 40, 1-phenyl-3-methyl-5-O-D-(2-deoxy)riboside-pyrazole] | 16.8

Test system: B6SJL-Tg (SOD1*G93A) mice
Assay: In vivo efficacy test of ALS model
Design: key to Rotarod Time / PaGE: “+” indicates a significant difference compared with the solvent group, p < 0.05
Conditions: 86 μmol/kg i.p. once a day for 4 weeks
Description: B6SJL-Tg (SOD1*G93A) mice were intraperitoneally administered single-doses once a day for 4 consecutive weeks. The weight of the mice was determined before and after the administration every week. The motor function of the mice was determined by rota-rod and PaGE tests with the time points before and after 4-week administration. The mice plasma was collected and detected for SOD levels through ELISA. The Index Evaluation described below was used to evaluate the efficacy of the compounds of the examples in ALS model and to what extent the compounds of the examples improve the survival period and motor activity.
The animals were delivered to the SPF animal room and raised for more than one week. Five days before the test, the mice were accustomed to a round of tests per day. The mice were randomly divided into groups according to their body weights, 8 mice for each group. Among them, the solvent group was given with the same volume of solvent (physiological saline) every day.
The mice were administered with a volume of 10 ml/kg.
i.p once a day for 4 weeks.
Index evaluation time started from the beginning of the experiment to the death of the animals.
1) ALS onset time: For 2 consecutive observation days, the mice appeared limb, tremor and/or limb weakness at tail suspension were determined as the ALS onset. The determination of limb weakness: the mice were placed on the rota-rod device with a diameter of 3.5 cm. The speed is set to 15 rpm to record the longest fall latency divided by 420 s. The mice of less 420 s were determined as limb weakness.
2) Rota-rod Test: The mice were placed on the rota-rod device with a diameter of 3.5 cm. The speed is set to 12 rpm to record the longest fall latency divided by 180 s. The latency of more than 180 s was recorded as 180 s, and actual time was recorded when less than 180 s.
3) Paw Grip Endurance (PaGE) Test: The mice were placed on the traditional wire grid. The grid was gently shaken to cause the mice to tighten its grip on the wires then inverted, and time recording commenced. The time was recorded until the mouse lost its grip in hind limbs divided by 90 s. The time more than 90 s was recorded as 90 s, while the time less than 90 s was recorded by its actual time. The test was completed in triplicate with the highest score used for analysis.
5) Plasma SOD concentration: The blood was collected and mixed with EP tube containing heparin before and after administration at the 4th week, and then centrifuged at 1000 g for 10 min. The plasma was collected and stored in aliquots at −70° C. ELISA kit was used to detect plasma SOD levels.

Row | SMILES | Onset time(d) | Survival time [days]
22 | Cc1cc(OCOC(=O)c2cc(N(C)C)ccc2O)n(-c2ccccc2)n1 [Compound 24, (3-methyl-1-phenylpyrazole-5-)oxymethyl-(2-hydroxy-5-N,N-dimethyl)benzoate] | 118.29 ± 6.32* d | 147.71 ± 8.94

Same assay, conditions: 86 μmol/kg i.p. once a day for 4 weeks, ELISA

Row | SMILES | Plasma SOD concentration on day 28th(U/mL)
23 | Cc1cc(OCOC(=O)c2cc(N(C)C)ccc2O)n(-c2ccccc2)n1 [Compound 24, (3-methyl-1-phenylpyrazole-5-)oxymethyl-(2-hydroxy-5-N,N-dimethyl)benzoate] | 150.55 ± 11.88* U/mL

Same assay, conditions: 86 μmol/kg i.p. once a day for 4 weeks, versus solvent group

Row | SMILES | PaGE | Rotarod Time
24 | Cc1cc(OCOC(=O)c2cc(N(C)C)ccc2O)n(-c2ccccc2)n1 [Compound 24, (3-methyl-1-phenylpyrazole-5-)oxymethyl-(2-hydroxy-5-N,N-dimethyl)benzoate] | + | +

Same assay, conditions: 28-day drug intervention

Row | SMILES | Fall latency in rota-rod test and PaGE test
25 | Cc1cc(OCOC(=O)c2cc(N(C)C)ccc2O)n(-c2ccccc2)n1 [Compound 24, (3-methyl-1-phenylpyrazole-5-)oxymethyl-(2-hydroxy-5-N,N-dimethyl)benzoate] | better than the marketed drug edaravone

Reference: patent US11692004B2, “Substituted pyrazole compound, preparation method therefor, pharmaceutical composition and medical use thereof” (JIANGSU VANGUARD PHARMACEUTICAL CO., LTD., priority 2018, dated 2023)
